Results taken from patent US10689344B2, “Biphenylamide derivative Hsp90 inhibitors” (University of Kansas, priority 2013, dated 2020).

Key:
[1] = system: SKBr3 (estrogen receptor negative, HER2 over-expressing breast cancer cells); test: Anti-proliferation assay (MTS/PMS, 72 h), SKBr3; type: cell-based; settings: Homo sapiens
Protocol: (§1) Cells were maintained in a 1:1 mixture of Advanced DMEM/F12 (Gibco) supplemented with non-essential amino acids, L-glutamine (2 mM), streptomycin (500 μg/mL), penicillin (100 units/mL), and 10% FBS. Cells were grown to confluence in a humidified atmosphere (37° C., 5% CO2), seeded (2000/well, 100 μL) in 96-well plates, and allowed to attach overnight. Compound at varying concentrations in DMSO (1% DMSO final concentration) was added, and cells were returned to the incubator for 72 h. At 72 h, the number of viable cells was determined using an MTS/PMS cell proliferation kit (Promega) per the manufacturer's instructions. Cells incubated in 1% DMSO were used at 100% proliferation, and values were adjusted accordingly. IC50 values were calculated from separate experiments performed in triplicate using GraphPad Prism.
(§2) Anti-proliferative studies with the compounds described herein were performed against the SKBr3 (estrogen receptor negative, HER2 over-expressing breast cancer cells) and MCF-7 (estrogen receptor positive breast cancer cells) breast cancer cell lines. […] In some embodiments, in contrast to the novobiocin derivatives, which usually manifest better anti-proliferative activities against the SKBr3 cell line, the biphenyl derivatives described herein were more efficacious against the MCF-7 cell line. In general, all substitutions on the phenyl ring were determined to be beneficial, consistent with the existence of a hydrophobic pocket in this region of the Hsp90 C-terminal binding site.

[2] = system: MCF-7 (estrogen receptor positive breast cancer cells); test: Anti-proliferation assay (MTS/PMS, 72 h), MCF-7; type: cell-based; settings: Homo sapiens
Protocol: as §1, §2

[3] = SK-BR-3, Table 3, substituted para-para biphenyl core
[4] = MCF7, Table 3, substituted para-para biphenyl core
[5] = SK-BR-3, Table 6, para-para biphenyl core with substituted benzylamide
[6] = MCF7, Table 6, para-para biphenyl core with substituted benzylamide

Row | IC50 [1, 3] [nM] | IC50 [2, 4] [nM] | SMILES | further results
1 | 3680 | 3120 | COc1cccc(-c2cc(C(=O)Nc3ccc(-c4ccc(OC5CCN(C)CC5)cc4Cl)cc3)ccc2OC)c1 [Compound 29j, N-(2′-chloro-4′-((1-methylpiperidin-4-yl)oxy)-[1,1′-biphenyl]-4-yl)-3′,6-dimethoxy-[1,1′-biphenyl]-3-carboxamide] | –
2 | 1950 | 1250 ± 280 | COc1cccc(-c2cc(C(=O)Nc3ccc(-c4ccc(OC5CCN(C)CC5)c([N+](=O)[O-])c4)cc3)ccc2OC)c1 [Compound 34a, 3′,6-dimethoxy-N-(4′-((1-methylpiperidin-4-yl)oxy)-3′-nitro-[1,1′-biphenyl]-4-yl)-[1,1′-biphenyl]-3-carboxamide] | –
3 | 2480 ± 770 | 3320 ± 250 | COc1cccc(-c2cc(C(=O)Nc3ccc(-c4ccc(OC5CCN(C)CC5)cc4)c([N+](=O)[O-])c3)ccc2OC)c1 [Compound 34c, 3′,6-dimethoxy-N-(4′-((1-methylpiperidin-4-yl)oxy)-2-nitro-[1,1′-biphenyl]-4-yl)-[1,1′-biphenyl]-3-carboxamide] | –
4 | 920 | 1150 ± 10 | COc1cccc(-c2cc(C(=O)Nc3ccc(-c4ccc(OC5CCN(C)CC5)cc4)cc3[N+](=O)[O-])ccc2OC)c1 [Compound 34d, 3′,6-dimethoxy-N-(4′-((1-methylpiperidin-4-yl)oxy)-3-nitro-[1,1′-biphenyl]-4-yl)-[1,1′-biphenyl]-3-carboxamide] | –
5 | 2130 ± 60 | 1760 ± 370 | COc1cccc(-c2cc(C(=O)Nc3ccc(-c4ccc(OC5CCN(C)CC5)cc4N)cc3)ccc2OC)c1 [Compound 38b, N-(2′-amino-4′-((1-methylpiperidin-4-yl)oxy)-[1,1′-biphenyl]-4-yl)-3′,6-dimethoxy-[1,1′-biphenyl]-3-carboxamide] | –
6 | 3510 ± 560 | 1660 ± 590 | COc1cccc(-c2cc(C(=O)Nc3ccc(-c4ccc(OC5CCN(C)CC5)cc4)cc3NC(C)=O)ccc2OC)c1 [Compound 39d, N-(3-acetamido-4′-((1-methylpiperidin-4-yl)oxy)-[1,1′-biphenyl]-4-yl)-3′,6-dimethoxy-[1,1′-biphenyl]-3-carboxamide] | –

Second part, the molecule before the results:

Row | SMILES | IC50 [1, 3] [nM] | IC50 [2, 4] [nM] | further results
7 | COc1cccc(-c2cc(C(=O)Nc3ccc(-c4ccc(OC5CCN(C)CC5)c(Cl)c4)cc3)ccc2OC)c1 [Compound 29i, N-(3′-chloro-4′-((1-methylpiperidin-4-yl)oxy)-[1,1′-biphenyl]-4-yl)-3′,6-dimethoxy-[1,1′-biphenyl]-3-carboxamide] | 1840 ± 570 | 1480 ± 120 | –
8 | COc1cccc(-c2cc(C(=O)Nc3ccc(-c4ccc(OC5CCN(C)CC5)cc4)c(Cl)c3)ccc2OC)c1 [Compound 29k, N-(2-chloro-4′-((1-methylpiperidin-4-yl)oxy)-[1,1′-biphenyl]-4-yl)-3′,6-dimethoxy-[1,1′-biphenyl]-3-carboxamide] | 2210 ± 180 | 3440 ± 210 | –
9 | COc1cccc(-c2cc(C(=O)Nc3ccc(-c4ccc(OC5CCN(C)CC5)cc4)cc3Cl)ccc2OC)c1 [Compound 29l, N-(3-chloro-4′-((1-methylpiperidin-4-yl)oxy)-[1,1′-biphenyl]-4-yl)-3′,6-dimethoxy-[1,1′-biphenyl]-3-carboxamide] | 4750 | 1800 ± 190 | –
10 | COc1cccc(-c2cc(C(=O)Nc3ccc(-c4ccc(OC5CCN(C)CC5)c(C#N)c4)cc3)ccc2OC)c1 [Compound 29m, N-(3′-cyano-4′-((1-methylpiperidin-4-yl)oxy)-[1,1′-biphenyl]-4-yl)-3′,6-dimethoxy-[1,1′-biphenyl]-3-carboxamide] | 2770 ± 1160 | 3700 ± 610 | –
11 | COc1cccc(-c2cc(C(=O)Nc3ccc(-c4ccc(OC5CCN(C)CC5)cc4[N+](=O)[O-])cc3)ccc2OC)c1 [Compound 34b, 3′,6-dimethoxy-N-(4′-((1-methylpiperidin-4-yl)oxy)-2′-nitro-[11′-biphenyl]-4-yl)-[1,1′-biphenyl]-3-carboxamide] | 1070 | 1300 ± 120 | –
12 | COc1cccc(-c2cc(C(=O)Nc3ccc(-c4ccc(OC5CCN(C)CC5)c(N)c4)cc3)ccc2OC)c1 [Compound 38a, N-(3′-amino-4′-((1-methylpiperidin-4-yl)oxy)-[1,1′-biphenyl]-4-yl)-3′,6-dimethoxy-[1,1′-biphenyl]-3-carboxamide] | 2230 ± 490 | 5950 ± 1220 | –
13 | COc1cccc(-c2cc(C(=O)Nc3ccc(-c4ccc(OC5CCN(C)CC5)cc4)c(N)c3)ccc2OC)c1 [Compound 38c, N-(2-amino-4′-((1-methylpiperidin-4-yl)oxy)-[1,1′-biphenyl]-4-yl)-3′,6-dimethoxy-[1,1′-biphenyl]-3-carboxamide] | 3900 ± 180 | 2070 ± 230 | –
14 | COc1cccc(-c2cc(C(=O)Nc3ccc(-c4ccc(OC5CCN(C)CC5)cc4)cc3N)ccc2OC)c1 [Compound 38d, N-(3-amino-4′-((1-methylpiperidin-4-yl)oxy)-[1,1′-biphenyl]-4-yl)-3′,6-dimethoxy-[1,1′-biphenyl]-3-carboxamide] | 3210 ± 450 | 2250 ± 490 | –
15 | COc1cccc(-c2cc(C(=O)Nc3ccc(-c4ccc(OC5CCN(C)CC5)c(NC(C)=O)c4)cc3)ccc2OC)c1 [Compound 39a, N-(3′-acetamido-4′-((1-methylpiperidin-4-yl)oxy)-[1,1′-biphenyl]-4-yl)-3′,6-dimethoxy-[1,1′-biphenyl]-3-carboxamide] | 2660 ± 760 | 1840 ± 430 | –
16 | COc1cccc(-c2cc(C(=O)Nc3ccc(-c4ccc(OC5CCN(C)CC5)cc4NC(C)=O)cc3)ccc2OC)c1 [Compound 39b, N-(2′-acetamido-4′-((1-methylpiperidin-4-yl)oxy)-[1,1′-biphenyl]-4-yl)-3′,6-dimethoxy-[1,1′-biphenyl]-3-carboxamide] | 3390 ± 660 | 1360 ± 230 | –
17 | COc1cccc(-c2cc(C(=O)Nc3ccc(-c4ccc(OC5CCN(C)CC5)cc4)c(NC(C)=O)c3)ccc2OC)c1 [Compound 39c, N-(2-acetamido-4′-((1-methylpiperidin-4-yl)oxy)-[1,1′-biphenyl]-4-yl)-3′,6-dimethoxy-[1,1′-biphenyl]-3-carboxamide] | 2520 ± 260 | 4660 ± 490 | –
18 | CN1CCC(Oc2ccc(-c3ccc(NC(=O)c4ccccc4)cc3)cc2)CC1 [Compound 41a, N-(4′-((1-methylpiperidin-4-yl)oxy)-[1,1′-biphenyl]-4-yl)benzamide] | – | – | IC50 [1, 5]: 4130 ± 220 nM; IC50 [2, 6]: 3950 ± 130 nM
19 | CN1CCC(Oc2ccc(-c3ccc(NC(=O)c4ccc(Cl)cc4)cc3)cc2)CC1 [Compound 41b, 4-chloro-N-(4′-((1-methylpiperidin-4-yl)oxy)-[1,1′-biphenyl]-4-yl)benzamide] | – | – | IC50 ([1]; SK-BR-3, Table 1, ortho, meta and para biphenyl cores): 570 ± 10 nM; IC50 [1, 5]: 570 ± 10 nM; IC50 ([2]; MCF7, Table 1, ortho, meta and para biphenyl cores): 520 ± 30 nM; IC50 [2, 6]: 520 ± 30 nM
20 | CN1CCC(Oc2ccc(-c3ccc(NC(=O)c4ccc(Br)cc4)cc3)cc2)CC1 [Compound 41c, 4-bromo-N-(4′-((1-methylpiperidin-4-yl)oxy)-[1,1′-biphenyl]-4-yl)benzamide] | – | – | IC50 [1, 5]: 520 ± 210 nM; IC50 [2, 6]: 520 ± 150 nM
21 | CN1CCC(Oc2ccc(-c3ccc(NC(=O)c4ccc(I)cc4)cc3)cc2)CC1 [Compound 41d, 4-iodo-N-(4′-((1-methylpiperidin-4-yl)oxy)-[1,1′-biphenyl]-4-yl)benzamide] | – | – | IC50 [1, 5]: 310 ± 90 nM; IC50 [2, 6]: 580 ± 10 nM
22 | Cc1ccc(C(=O)Nc2ccc(-c3ccc(OC4CCN(C)CC4)cc3)cc2)cc1 [Compound 41e, 4-methyl-N-(4′-((1-methylpiperidin-4-yl)oxy)-[1,1′-biphenyl]-4-yl)benzamide] | – | – | IC50 [1, 5]: 980 ± 190 nM; IC50 [2, 6]: 1270 ± 130 nM
